Laboratory results from patent US5114918A, “Endothelin antagonistic cyclic pentapeptides” (Banyu Pharmaceutical Co., Ltd., priority 1989, dated 1992).
Square brackets hold non-standard residues; d marks the D form. Peptide text beside a SMILES is read from it. d(aIle) = CC[C@H](C)[C@@H](N)C(=O)O

Experiments:
[1] = target: T1, endothelin receptor (membrane of smooth muscle tissue of porcine aorta) (Sus scrofa, UniProt Q29010); experiment: Endothelin binding inhibition test (125I-endothelin-1, porcine aorta smooth muscle membrane); conditions: 1.1 μM of the test compound, porcine aorta smooth muscle membrane, 25° C, 4 hours
T1 construct: from tissue; host or cells: smooth muscle tissue of porcine aorta (membrane fraction)
T1 sequence (Q29010 21-427): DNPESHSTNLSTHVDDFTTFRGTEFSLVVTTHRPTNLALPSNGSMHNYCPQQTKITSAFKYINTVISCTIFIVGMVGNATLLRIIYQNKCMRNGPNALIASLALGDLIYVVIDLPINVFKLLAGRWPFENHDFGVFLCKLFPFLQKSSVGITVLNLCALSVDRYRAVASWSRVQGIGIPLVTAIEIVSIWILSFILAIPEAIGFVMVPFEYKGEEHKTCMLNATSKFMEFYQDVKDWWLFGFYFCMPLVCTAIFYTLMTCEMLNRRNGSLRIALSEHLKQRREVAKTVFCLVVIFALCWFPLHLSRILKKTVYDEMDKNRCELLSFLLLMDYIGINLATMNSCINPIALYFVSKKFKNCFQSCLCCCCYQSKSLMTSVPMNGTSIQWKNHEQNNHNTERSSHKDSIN
Method in brief: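 Porcine aortic smooth muscle membranes incubated with ^125I-endothelin-1 (12000-18000 cpm) and test compound at 1.1 μM final in Tris/HCl pH 7.4 with protease inhibitors and 0.1% BSA, 4 h at 25 °C. Filter-bound radioactivity counted, nonspecific binding defined with 0.2 μM endothelin-1; % binding inhibition in triplicate.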

[2] = system: isolated porcine coronary artery (endothelin-1-induced contraction); experiment: Activities against endothelin-induced contraction of isolated porcine coronary arteries; set-up: species or system pig; conditions: for shift of the concentration-response curve of endothelin-1: added 20 minutes prior to endothelin-1
Experimental: Activities against endothelin-induced contraction of isolated procine coronary arteries
The coronary artery of pig was extracted, and a spiral preparation having a width of 1 mm and a length of 10 mm was prepared therefrom. The preparation having the endothelial cells denuded, was hanged in a 5 ml organ bath filled wit a Krebs.Henseleit solution saturated with a gas mixture of 95% O2 and 5% CO2, and the change in the tension was isometrically measured and recorded.
(§1) Endothelin-1 was added into the organ bath in a cumulatively increasing manner, whereby the influence of the compound of the present invention to the concentration-response curve for endothelin-1 was examined. The compound of the present invention was added into the organ bath 20 minutes prior to the addition of endothelin-1.

[3] = system: isolated porcine basilar artery (endothelin-1-induced contraction); experiment: Activities against endothelin-induced contraction of isolated porcine basilar artery; set-up: species or system pig; conditions: compound 2 μM
Experimental: Activities aqainst endothelin-induced contraction of isolated porcine basilar artery
The arteria basilaris of pig was extracted, and then a ring preparation with a width of 4 mm was prepared. After denuded the endothelial cells, the preparation was hanged in a 5 ml organ bath filled with a Krebs.Henseleit solution saturated with a gas mixture of 95% O2 and 5% CO2, and the change in the tension was isometrically measured and recorded.
as §1

[4] = system: isolated guinea pig trachea (endothelin-1-induced contraction); experiment: Activities against endothelin-induced contraction of isolated guinea pig trachea; conditions: compound 6 μM
Experimental: Activities aqainst endothelin-induced contraction of isolated guinea pig trachea
The trachea of a guinea pig was extracted, and the trachea was cut into rings to afford the preparation. A preparation having the endothelial cells denuded, was hanged in a 5 ml organ bath filled with a Krebs.Henseleit solution saturated with a gas mixture of 95% O2 and 5% CO2, and the change in the tension was isometrically measured and recorded.
as §1, with “manner, and” for “manner, whereby”, “for endothelin” for “for endothelin-1”

[5] = system: isolated rat heart (endothelin-1-induced increase of perfusion pressure); experiment: Effects on the increased perfusion pressure induced by endothelin in isolated rat heart
Experimental: Effects on the increased perfusion pressure induced by endothelin in isolated rat heart
The heart of a male Sprague Dohrie (SD) rat was extracted, and the perfusion pressure was measured and recorded by a Langendorff's method. The perfusion pressure was evaluated on the basis that the state where a Krebs.Henseleit solution saturated with a gas mixture of 95% O2 and 5% CO2 was infused at a rate of 10 ml/min, was taken as a standard.
Endothelin-1 was cumulatively added to the perfusate, whereby the influence of the compound to the concentration-response curve for endothelin-1 was examined. The compound of the present invention which was dissolved in the perfusate had been infused from 20 minutes prior to the addition of endothelin-1 till just after finishing measurement of the concentration-response curve for endothelin-1.

[6] = added 20 minutes prior to endothelin-1

Molecule: CC(C)C[C@@H]1NC(=O)[C@@H](C(C)C)NC(=O)[C@H](C)NC(=O)[C@@H](CC(=O)O)NC(=O)[C@@H](Cc2c[nH]c3ccccc23)NC1=O [Example 12, cyclo(-DTrp-DAsp-Ala-DVal-Leu-)] (cyclo(A[dV]L[dW][dD]))
- inhibition at 1.1 µM ([1]; read-out: 125I-endothelin-1 binding inhibition, Inhibition (%)): 75%
- effect on the maximum response to endothelin-1 ([2]; compound 3 μM): did not affect the maximum response
- shift of the concentration-response curve of endothelin-1 ([2]; compound 3 μM): remarkably shifted the concentration-response curves of endothelin-1 to the right

Molecule: cyclo(-DTro-DCys(O3 Na)-Pro-DVal-Leu-) [Example 3]
- effect on the maximum response to endothelin-1 [3]: did not affect the maximum response
- shift of the concentration-response curve for endothelin-1 [3, 6]: remarkably shifted the concentration-response curve for endothelin-1 to the right
- 125I-endothelin-1 binding inhibition, Inhibition (%) [1]: 85%
- effect on the maximum response to endothelin-1 ([2]; compound 2 μM): did not affect the maximum response
- shift of the concentration-response curve of endothelin-1 ([2]; compound 2 μM): remarkably shifted the concentration-response curves of endothelin-1 to the right
- effect on the maximum response to endothelin-1 [4]: did not affect the maximum response
- shift of the concentration-response curve for endothelin-1 [4, 6]: remarkably shifted the concentration-response curves for endothelin-1 to the right
- effect on the maximum response to endothelin-1 (perfusion pressure) ([5]; compound 1 μM): did not affect the maximum response
- shift of the concentration-response curve for endothelin-1 (perfusion pressure) ([5]; compound 1 μM in the perfusate from 20 minutes prior to endothelin-1, Langendorff): moved the concentration-response curve for endothelin-1 to the right

Molecule: cyclo(-DTrp(CHO)-DAsp-Pro-DaIle-Leu-) [Example 53]
- 125I-endothelin-1 binding inhibition, Inhibition (%) [1]: 89%

Molecule: cyclo(-DTrp(CHO)-DCys(O3 Na)-Pro-DThg-Leu-) [Example 75]
- 125I-endothelin-1 binding inhibition, Inhibition (%) [1]: 87%

Molecule: cyclo(-DTrp(CHO)-DGlu-Ala-DaIle-Leu-) [Example 52]
- 125I-endothelin-1 binding inhibition, Inhibition (%) [1]: 64%

Molecule: cyclo(-DTrp-DAsp-Cys(O3 Na)-DVal-Leu-) [Example 24]
- 125I-endothelin-1 binding inhibition, Inhibition (%) [1]: 78%

Molecule: cyclo(-DTrp-DAsp-Pro-DtertLeu-Leu-) [Example 71]
- 125I-endothelin-1 binding inhibition, Inhibition (%) [1]: 80%

Molecule: cyclo(-DTrp-DCys(O3 Na)-Glu-DVal-Leu-) [Example 49]
- 125I-endothelin-1 binding inhibition, Inhibition (%) [1]: 67%

Molecule: cyclo(-DTrp-DCys(O3 Na)-Pro-DThg-Leu-) [Example 76]
- 125I-endothelin-1 binding inhibition, Inhibition (%) [1]: 84%

Molecule: cyclo(-DTrp-DCys(O3 Na)-Pro-DaIle-Leu-) [Example 43]
- 125I-endothelin-1 binding inhibition, Inhibition (%) [1]: 85%

Molecule: cyclo([dW][dD]P[d(aIle)]L) [Example 32]
- 125I-endothelin-1 binding inhibition, Inhibition (%) [1]: 87%

Molecule: cyclo([dW][dD]P[dV]L) [Example 30]
- 125I-endothelin-1 binding inhibition, Inhibition (%) [1]: 72%

Molecule: cyclo([dW][dE]A[d(aIle)]L) [Example 8]
- 125I-endothelin-1 binding inhibition, Inhibition (%) [1]: 37%
